Measured values as given in article PMC5439667, “Thermal stability and kinetic constants for 129 variants of a family 1 glycoside hydrolase reveal that enzyme activity and stability can be separately designed” (PLoS ONE, 2017).

Target: BglB (Paenibacillus polymyxa, UniProt P22505)
Assay: Michaelis-Menten kinetics of […]-nitrophenol release (as in the previous study)
Type: biochemical
Conditions: wild type, batched replicates re-measured here; conditions of the kinetic assay not printed in the main text

BglB, sequence (P22505 whole entry): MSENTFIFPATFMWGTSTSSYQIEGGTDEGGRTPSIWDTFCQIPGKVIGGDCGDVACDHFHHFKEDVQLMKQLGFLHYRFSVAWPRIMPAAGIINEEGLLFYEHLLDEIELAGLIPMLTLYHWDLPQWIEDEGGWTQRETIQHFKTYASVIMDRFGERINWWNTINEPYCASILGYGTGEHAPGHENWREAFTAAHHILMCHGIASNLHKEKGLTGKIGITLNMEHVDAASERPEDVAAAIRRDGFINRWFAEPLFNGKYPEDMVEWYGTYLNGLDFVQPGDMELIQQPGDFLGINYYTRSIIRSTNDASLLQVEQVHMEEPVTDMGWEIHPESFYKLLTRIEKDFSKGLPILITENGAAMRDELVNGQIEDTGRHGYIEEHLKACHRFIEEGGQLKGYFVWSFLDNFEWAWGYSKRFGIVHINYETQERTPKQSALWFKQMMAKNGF

Compound: O=[N+]([O-])c1ccc(O[C@@H]2O[C@H](CO)[C@@H](O)[C@H](O)[C@H]2O)cc1 [pNPG]
- KM: batched replicates of the native BglB sequence
